Values quoted from earlier work in patent publication US6692771B2, “Emulsions as solid dosage forms for oral administration” (CIMA Labs Inc., priority 2001, dated 2004).

Details: orally administered dose; average value given in parentheses

For Oc1ccc2c3c1O[C@H]1[C@@H](O)CC[C@@]4(O)[C@@H](C2)N(CC2CCC2)CC[C@]314 [nalbuphine], the average bioavailability is listed as “approximately 17%”.

For methyldopa, the average bioavailability is listed as 25%.
